Experimental data reported in patent US8865734B2 (priority 2010, dated 2014).
Values after ≈ are worked out from the molar mass of the structure shown.

Legend:
[1] = tested on: in vitro grown Mycobacteria (M. tuberculosis); assay: QUM: Quantification of in vitro grown Mycobacteria (in vitro growth fluorescence assay); type: cell-based; details: Mycobacterium tuberculosis; MIC, 80% bacterial growth inhibition; in vitro growth; read-out: QUM
Excerpt: (§1) A 120,000 small molecule compound library was screened using a validated phenotypic cell-based assay (WO2010003533A2). Active compounds from the primary screen were confirmed via dose response in the intracellular (QIM) assay and an in vitro (QUM) assay, wherein the abbreviation “QIM” stands for Quantification of Intracellular Mycobacteria and the abbreviation “QUM” stands for Quantification of in vitro grown Mycobacteria. […] The MIC is the minimum concentration of compound required to obtain 80% bacterial growth inhibition.
(§2) The imidazopyridine compounds (scaffolds Ia and Ib; see Table 1) underwent derivatization according to the methods outlined below (Schemes 1-13). Resulting derivatives were examined for inhibitory activity (MIC) using the assays described above (Example 1) and the results are summarized in Table 1.

[2] = tested on: M. tuberculosis inside the host macrophage; assay: QIM: Quantification of Intracellular Mycobacteria (intracellular growth assay, phenotypic cell-based); details: Mycobacterium tuberculosis; MIC, 80% bacterial growth inhibition; intracellular growth; read-out: QIM
Excerpt: Accordingly, a phenotypic cell-based assay, suitable for high throughput screening, which allows for the search of compounds that would prevent M. tuberculosis multiplication inside the host macrophage was utilized (WO2010003533A2), overcoming many of the numerous and burdensome steps involved in previous methodologies (Arain et al., 1996).
as §1, §2

Structure (SMILES)	MIC [1] [µM]	MIC [2] [µM]
Cc1nc2cc(C#N)ccn2c1C(=O)NCc1ccccc1 [Compound 35, N-Benzyl-7-cyano-2-methylimidazo[1,2-a]pyridine-3-carboxamide]	> 20	> 20
Cc1nc2ccc(C#N)cn2c1C(=O)NCc1ccccc1 [Compound 36, N-Benzyl-6-cyano-2-methylimidazo[1,2-a]pyridine-3-carboxamide]	> 20	> 20
Cc1nc2cc(-c3ccccc3)ccn2c1C(=O)NCc1ccccc1 [Compound 37, N-Benzyl-2-methyl-7-phenylimidazo[1,2-a]pyridine-3-carboxamide]	> 20	> 20
Cc1nc2ccc(-c3ccccc3)cn2c1C(=O)NCc1ccccc1 [Compound 38, N-Benzyl-2-methyl-6-phenylimidazo[1,2-a]pyridine-3-carboxamide]	> 20	> 20
Cc1nc2c(F)cccn2c1C(=O)NCc1ccccc1 [Compound 39, N-Benzyl-8-fluoro-2-methylimidazo[1,2-a]pyridine-3-carboxamide]	1 to 20 (≈ 0.283 to 5.67 µg/mL)	1 to 20 (≈ 0.283 to 5.67 µg/mL)
Cc1nc2c(C(F)(F)F)cccn2c1C(=O)NCc1ccccc1 [Compound 40, N-Benzyl-2-methyl-8-(trifluoromethyl)imidazo[1,2-a]pyridine-3-carboxamide]	> 20	> 20
COc1cccn2c(C(=O)NCc3ccccc3)c(C)nc12 [Compound 41, N-Benzyl-8-methoxy-2-methylimidazo[1,2-a]pyridine-3-carboxamide]	> 20	> 20
Cc1nc2c(C#N)cccn2c1C(=O)NCc1ccccc1 [Compound 42, N-Benzyl-8-cyano-2-methylimidazo[1,2-a]pyridine-3-carboxamide]	> 20	> 20
Cc1nc2c(O)cccn2c1C(=O)NCc1ccccc1 [Compound 43, N-Benzyl-8-hydroxy-2-methylimidazo[1,2-a]pyridine-3-carboxamide]	> 20	> 20
Cc1nc2ccc(Cl)cn2c1C(=O)NCc1ccc(-c2ccccc2)cc1 [Compound 44]	< 1	< 1
Cc1nc2cc(Cl)ccn2c1C(=O)NCc1ccc(-c2ccccc2)cc1 [Compound 45]	< 1	< 1
CCc1nc2ccccn2c1C(=O)NCc1ccccc1 [Compound 46, N-Benzyl-2-ethylimidazo[1,2-a]pyridine-3-carboxamide]	1 to 20 (≈ 0.279 to 5.59 µg/mL)	1 to 20 (≈ 0.279 to 5.59 µg/mL)
CCCc1nc2ccccn2c1C(=O)NCc1ccccc1 [Compound 48, N-Benzyl-2-propylimidazo[1,2-a]pyridine-3-carboxamide]	1 to 20 (≈ 0.293 to 5.87 µg/mL)	> 20
CCCc1nc2ccccn2c1C(=O)NCc1ccc(-c2ccccc2)cc1 [Compound 49, N-(Biphenyl-4-ylmethyl)-2-propylimidazo[1,2-a]pyridine-3-carboxamide]	< 1	< 1
O=C(NCc1ccccc1)c1c(C2CC2)nc2ccccn12 [Compound 50, N-Benzyl-2-cyclopropylimidazo[1,2-a]pyridine-3-carboxamide]	1 to 20 (≈ 0.291 to 5.83 µg/mL)	1 to 20 (≈ 0.291 to 5.83 µg/mL)
CC(C)c1nc2ccccn2c1C(=O)NCc1ccccc1 [Compound 51, N-Benzyl-2-isopropylimidazo[1,2-a]pyridine-3-carboxamide]	> 20	> 20
CC(C)c1nc2ccccn2c1C(=O)NCc1ccc(-c2ccccc2)cc1 [Compound 52, N-(Biphenyl-4-ylmethyl)-2-isopropylimidazo[1,2-a]pyridine-3-carboxamide]	1 to 20 (≈ 0.369 to 7.39 µg/mL)	1 to 20 (≈ 0.369 to 7.39 µg/mL)
O=C(NCc1ccccc1)c1c(-c2ccccc2)nc2ccccn12 [Compound 53, N-Benzyl-2-phenylimidazo[1,2-a]pyridine-3-carboxamide]	> 20	> 20
CCc1nc2ccccn2c1C(=O)NCc1ccc(C(C)(C)C)cc1 [Compound 55, N-(4-tert-Butylbenzyl)-2-ethylimidazo[1,2-a]pyridine-3-carboxamide]	< 1	< 1
CCc1nc2ccccn2c1C(=O)NCc1ccc2c(ccn2C)c1 [Compound 56, 2-Ethyl-N-((1-methyl-1H-indol-5-yl)methyl)imidazo[1,2-a]pyridine-3-carboxamide]	< 1	< 1
CCc1nc2ccccn2c1C(=O)NCc1ccc(OC(F)(F)F)cc1 [Compound 57, 2-Ethyl-N-(4-(trifluoromethoxy)benzyl)imidazo[1,2-a]pyridine-3-carboxamide]	< 1	< 1
CCc1nc2ccccn2c1C(=O)NCc1ccc2ccn(C)c2c1 [Compound 58, 2-Ethyl-N-((1-methyl-1H-indol-6-yl)methyl)imidazo[1,2-a]pyridine-3-carboxamide]	1 to 20 (≈ 0.332 to 6.65 µg/mL)	1 to 20 (≈ 0.332 to 6.65 µg/mL)

Structure (SMILES)	MIC [1] [µM]	MIC [2] [µM]
CCc1nc2ccccn2c1C(=O)NCc1ccc(OC(C)C)cc1 [Compound 60, 2-Ethyl-N-(4-isopropoxybenzyl)imidazo[1,2-a]pyridine-3-carboxamide]	< 1	< 1
CCc1nc2ccccn2c1C(=O)NCc1ccc(OCC(C)C)cc1 [Compound 61, 2-Ethyl-N-(4-isobutoxybenzyl)imidazo[1,2-a]pyridine-3-carboxamide]	< 1	< 1
CCc1nc2ccc(C)cn2c1C(=O)NCc1ccc(-c2ccccc2)cc1 [Compound 62, N-(Biphenyl-4-ylmethyl)-2-ethyl-6-methylimidazo[1,2-a]pyridine-3-carboxamide]	< 1	< 1
CCc1nc2ccc(C)cn2c1C(=O)NCc1ccc(Oc2ccccc2)cc1 [Compound 63, 2-Ethyl-6-methyl-N-(4-phenoxybenzyl)imidazo[1,2-a]pyridine-3-carboxamide]	< 1	< 1
CCc1nc2ccc(C)cn2c1C(=O)NCc1ccc(C(C)(C)C)cc1 [Compound 64, N-(4-tert-Butylbenzyl)-2-ethyl-6-methylimidazo[1,2-a]pyridine-3-carboxamide]	< 1	< 1
CCc1nc2ccc(C)cn2c1C(=O)NCc1ccc(OC(F)(F)F)cc1 [Compound 65, 2-Ethyl-6-methyl-N-(4-(trifluoromethoxy)benzyl)imidazo[1,2-a]pyridine-3-carboxamide]	< 1	< 1
CCc1nc2ccc(C)cn2c1C(=O)NCc1ccc2c(ccn2C)c1 [Compound 66, 2-Ethyl-6-methyl-N-((1-methyl-1H-indol-5-yl)methyl)imidazo[1,2-a]pyridine-3-carboxamide]	< 1	< 1
CCc1nc2ccc(C)cn2c1C(=O)NCc1ccc2ccn(C)c2c1 [Compound 67, 2-Ethyl-6-methyl-N-((1-methyl-1H-indol-6-yl)methyl)imidazo[1,2-a]pyridine-3-carboxamide]	< 1	< 1
CCc1nc2ccc(Cl)cn2c1C(=O)NCc1ccc(Cl)cc1 [Compound 70, 6-Chloro-N-(4-chlorobenzyl)-2-ethylimidazo[1,2-a]pyridine-3-carboxamide]	< 1	< 1
CCc1nc2ccc(Cl)cn2c1C(=O)NCc1ccc(Oc2ccccc2)cc1 [Compound 71]	< 1	< 1
CCc1nc2ccc(Cl)cn2c1C(=O)NCc1ccc(OC(F)(F)F)cc1 [Compound 72]	< 1	< 1
CCc1nc2ccc(Cl)cn2c1C(=O)NCc1ccc(C(C)(C)C)cc1 [Compound 73]	< 1	< 1
CCc1nc2ccc(Cl)cn2c1C(=O)NCc1ccc(N2CCOCC2)cc1 [Compound 74]	< 1	< 1
CCc1nc2ccc(Cl)cn2c1C(=O)NCc1ccc(OC(C)C)cc1 [Compound 75]	< 1	< 1
CCc1nc2ccc(Cl)cn2c1C(=O)NCc1ccc(OCC(C)C)cc1 [Compound 76]	< 1	< 1
CCc1nc2ccc(Cl)cn2c1C(=O)NCc1ccc(N2CCCCC2)cc1 [Compound 79, 6-Chloro-2-ethyl-N-(4-(piperidin-1-yl)benzyl)imidazo[1,2-a]pyridine-3-carboxamide]	< 1	< 1
CCc1nc2ccc(Cl)cn2c1C(=O)NCc1ccc2ccccc2c1 [Compound 80, 6-Chloro-2-ethyl-N-(naphthalen-2-ylmethyl)imidazo[1,2-a]pyridine-3-carboxamide]	< 1	< 1
CCc1nc2ccc(Cl)cn2c1C(=O)NCc1ccc(-c2ccccc2Cl)cc1 [Compound 82, 6-Chloro-N-((2′-chlorobiphenyl-4-yl)methyl)-2-ethylimidazo[1,2-a]pyridine-3-carboxamide]	< 1	< 1
CCc1nc2ccc(Cl)cn2c1C(=O)NCc1ccc(-c2ccc(Cl)cc2)cc1 [Compound 83, 6-Chloro-N-((4′-chlorobiphenyl-4-yl)methyl)-2-ethylimidazo[1,2-a]pyridine-3-carboxamide]	< 1	< 1
CCc1nc2ccc(Cl)cn2c1C(=O)NCc1ccc(-c2ccccc2C)cc1 [Compound 84, 6-Chloro-2-ethyl-N-((2′-methylbiphenyl-4-yl)methyl)imidazo[1,2-a]pyridine-3-carboxamide]	< 1	< 1
CCc1nc2ccc(Cl)cn2c1C(=O)NCc1ccc(-c2cccc(C)c2)cc1 [Compound 85, 6-Chloro-2-ethyl-N-((3′-methylbiphenyl-4-yl)methyl)imidazo[1,2-a]pyridine-3-carboxamide]	< 1	< 1
